Assay results as given in PMC10269622, “Blapstin, a Diapause-Specific Peptide-Like Peptide from the Chinese Medicinal Beetle Blaps rhynchopetera, Has Antifungal Function” (Microbiology Spectrum, 2023).
Values after ≈ are worked out from the molar mass of the structure shown.

How the values were obtained:
Assay in all cases: MIC, broth double dilution
[1] = system: Candida albicans ATCC 10231; assay type: cell-based; conditions: 96-well plate, 37°C, 16 h, absorbance at 600 nm, mean of three independent experiments
Method: (§1) The standard strain of C. albicans (ATCC 10231), three clinically isolated antibiotic-resistant strains (C. albicans 0065, C. albicans 0063, and C. albicans 6), E. coli (ATCC 8739), and S. aureus (ATCC 6538) were obtained from Kunming Medical University. T. rubrum was purchased from BeNa Culture Collection (BNCC, CAS no. 340195). Different strains of C. albicans, E. coli, and S. aureus were cultured with shaking at 37°C in YM medium and Luria-Bertani (LB) medium. T. rubrum was cultured at 28°C in potato dextrose agar (PDA) medium according to the manufacturer’s instructions.
(§2) According to CLSI protocols, the MIC is determined as a point where there is “zero detectable growth,” The MIC of blapstin against different fungal strains was determined by use of the double dilution method, namely, broth dilution determination. In brief, the different strains were grown in their corresponding media at 28°C or 37°C until they reached the exponential growth phase. Colistin E and fluconazole were used as positive controls. Blapstin was diluted to various concentrations in sterile saline: 100 μL of sterile saline was added to the second well of a sterile 96-well plate, and then 100 μL of blapstin was added to the first and second wells. The solution from the second well was double-diluted with sterile saline until the 11th well, from which 100 μL was removed. In the 12th well, no blapstin was added, and sterile saline was used as a negative control. Afterward, 100 μL of the diluted microbial solution was added to each well, followed by incubation at 37°C for 16 h. To assess the antifungal activity of blapstin against the T. rubrum strain, the spore germination rates were first determined microscopically with a hemocytometer. T. rubrum was diluted with normal saline to 1 × 10^5 CFU/mL and then incubated with various concentrations of blapstin at 28°C for 16 h. The absorbance at 600 nm was measured by a microplate reader (Epoch Etock; Biotek, USA) to estimate the inhibition of bacteria and fungi by blapstin.

[2] = system: Trichophyton rubrum; assay type: cell-based; conditions: 1 × 10^5 CFU/mL, 28°C, 16 h, absorbance at 600 nm, mean of three independent experiments, ND = no bacteriostatic activity
Method: as §1, §2

[3] = system: C. albicans 0065; assay type: cell-based, Candida albicans; conditions: 37°C, 16 h, absorbance at 600 nm, mean of three independent experiments
Method: as §1, §2

[4] = system: C. albicans 0063; assay type: cell-based, Candida albicans; conditions: 37°C, 16 h, absorbance at 600 nm, mean of three independent experiments
Method: as §1, §2

[5] = system: C. albicans 6; assay type: cell-based, Candida albicans; conditions: 37°C, 16 h, absorbance at 600 nm, mean of three independent experiments
Method: as §1, §2

[6] = system: Escherichia coli ATCC 8739; assay type: cell-based; conditions: 96-well plate, 37°C, 16 h, absorbance at 600 nm, mean of three independent experiments, ND = no bacteriostatic activity
Method: as §1, §2

[7] = system: Staphylococcus aureus ATCC 6538; assay type: cell-based; conditions: 96-well plate, 37°C, 16 h, absorbance at 600 nm, mean of three independent experiments, ND = no bacteriostatic activity
Method: as §1, §2

[8] = clinically isolated antibiotic-resistant strain

| Compound | MIC ([1]; Candida albicans, ATCC10231, standard strain) [µM] | MIC [2] [µM] | MIC ([3]; Candida albicans, 0065, clinically isolated antibiotic-resistant strain) [µM] | MIC ([4]; Candida albicans, 0063, clinically isolated antibiotic-resistant strain) [µM] | MIC ([5]; Candida albicans, 6, clinically isolated antibiotic-resistant strain) [µM] | MIC ([1]; standard strain) [µM] | MIC [6] [µM] | MIC [7] [µM] | MIC [3, 8] [µM] | MIC [4, 8] [µM] | MIC [5, 8] [µM] |
| --- | --- | --- | --- | --- | --- | --- | --- | --- | --- | --- | --- |
| OC(Cn1cncn1)(Cn1cncn1)c1ccc(F)cc1F [Fluconazole] | 15 (≈ 4.59 µg/mL) | 12.2 (≈ 3.74 µg/mL) | 70 (≈ 21.4 µg/mL) | 61 (≈ 18.7 µg/mL) | 61 (≈ 18.7 µg/mL) | – | – | – | – | – | – |
| Colistin E | – | – | – | – | – | 22 | 3 | 81.1 | 5.4 | 5.4 | 1.1 |
